Measurements published in ChEMBL document CHEMBL3808363, “2-(Thienothiazolylimino)-1,3-thiazolidin-4-ones inhibit cell division cycle 25 A phosphatase” (Bioorg Med Chem, 2016).
The source made the active and inactive calls. The rule behind the calls is not given here.

Test system: MDA-MB-231
Assay: Induction of apoptosis in human MDA-MB-231 cells assessed as nuclear fragmentation after 24 hrs by dihydro-rhodamine 123/hoechst […] staining based UV fluorescent microscopy
Format: functional, cell-based

How did the Activity turn out when `COc1ccc(/C=C2/S/C(=N\c3nc4cc(-c5ccc(Cl)cc5)sc4s3)NC2=O)cc1` was run?
Its Activity is “inactive”.
